Results as given in PubChem BioAssay AID328 (DTP/NCI, 2004).
Toxic doses and inconclusive results are not listed.

Tested on: BDF1 mice, P388 leukemia ip, median survival T/C
Assay: NCI In Vivo Anticancer Drug Screen. Data for tumor model P388 Leukemia (intraperitoneal) in B6D2F1 (BDF1) mice
Details: endpoint: median survival time, higher = longer survival
Procedure, shortened: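 Steps: implant the tumour, treat one group with compound and another with vehicle, record survival, then divide treated by control.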

[1] = dose: 50.0 mg/kg/injection, schedule: Q04DX003 (ip), vehicle: water
[2] = dose: 100.0 mg/kg/injection, schedule: Q04DX003 (ip), vehicle: water
[3] = dose: 200.0 mg/kg/injection, schedule: Q04DX003 (ip), vehicle: water
[4] = dose: 50.0 mg/kg/injection, schedule: Q01DX009 (ip), vehicle: saline with Tween-80
[5] = dose: 100.0 mg/kg/injection, schedule: Q01DX009 (ip), vehicle: saline with Tween-80
[6] = dose: 200.0 mg/kg/injection, schedule: Q01DX009 (ip), vehicle: saline with Tween-80
[7] = dose: 200.0 mg/kg/injection, schedule: Q04DX003 (ip), vehicle: saline with Tween-80
[8] = dose: 400.0 mg/kg/injection, schedule: Q04DX003 (ip), vehicle: saline with Tween-80
[9] = dose: 100.0 mg/kg/injection, schedule: Q01DX009 (ip), vehicle: Klucel (hydroxypropylcellulose) (HPC)

CCOC(=O)C(C(=O)COC)C(=O)OCC
T/C (dose: 12.5 mg/kg/injection, schedule: Q04DX003 (ip), vehicle: water): 100 % of control
T/C (dose: 25.0 mg/kg/injection, schedule: Q04DX003 (ip), vehicle: water): 108 % of control
T/C [1]: 105 % of control
T/C [2]: 115 % of control
T/C [3]: 115 % of control

CCSC1(SCC)C(=O)OC2=C(CCCC2)C1N(C)c1ccccc1 (configuration not stated)
T/C [4]: 96 % of control
T/C [5]: 94 % of control
T/C [6]: 91 % of control

Cc1nc(N)c2nc(SCc3ccc(Cl)cc3)c(N)nc2n1
T/C [7]: 86 % of control
T/C [8]: 97 % of control

CC1CCCCN1CCCO (configuration not stated)
T/C (dose: 25.0 mg/kg/injection, schedule: Q01DX009 (ip), vehicle: saline): 104 % of control
T/C (dose: 50.0 mg/kg/injection, schedule: Q01DX009 (ip), vehicle: saline): 108 % of control
T/C (dose: 50.0 mg/kg/injection, schedule: Q04DX003 (ip), vehicle: saline): 92 % of control
T/C (dose: 100.0 mg/kg/injection, schedule: Q01DX009 (ip), vehicle: saline): 112 % of control
T/C (dose: 100.0 mg/kg/injection, schedule: Q04DX003 (ip), vehicle: saline): 96 % of control

COC(=O)c1cncc(C(=O)OC)c1
T/C (dose: 100.0 mg/kg/injection, schedule: Q04DX003 (ip), vehicle: saline with Tween-80): 100 % of control
T/C (dose: 176.0 mg/kg/injection, schedule: Q04DX003 (ip), vehicle: saline with Tween-80): 100 % of control
T/C [7]: 95 % of control
T/C (dose: 264.0 mg/kg/injection, schedule: Q04DX003 (ip), vehicle: saline with Tween-80): 100 % of control
T/C [8]: 100 % of control

COc1cccc2c1C(=O)c1c(O)c3c(c(O)c1C2=O)C[C@@](O)(C(=O)CO)C[C@@H]3OC1CC(N(C)C)C(O)C(C)O1 (some centres not stated)
T/C (dose: 1.44 mg/kg/injection, schedule: Q04DX003 (ip), vehicle: water): 170 % of control
T/C (dose: 2.4 mg/kg/injection, schedule: Q04DX003 (ip), vehicle: water): 198 % of control
T/C (dose: 4.0 mg/kg/injection, schedule: Q04DX003 (ip), vehicle: water): 89 % of control

COc1ccc(C(=O)CC(C#N)c2ccc(OC)c(OC)c2)cc1OC (configuration not stated)
T/C [5]: 100 % of control
T/C [6]: 100 % of control
T/C (dose: 400.0 mg/kg/injection, schedule: Q01DX009 (ip), vehicle: saline with Tween-80): 95 % of control

CCCCC/C(C=C(C#N)C#N)=C/c1ccccc1
T/C (dose: 25.0 mg/kg/injection, schedule: Q01DX009 (ip), vehicle: saline with Tween-80): 100 % of control
T/C [5]: 119 % of control

NC(=S)c1nn(C2OC(CO)C(O)C2O)c2ncnc(N)c12 (configuration not stated)
T/C (dose: 0.37 mg/kg/injection, schedule: Q01DX009 (ip), vehicle: saline): 111 % of control
T/C (dose: 0.75 mg/kg/injection, schedule: Q01DX009 (ip), vehicle: saline): 116 % of control

CN(C)c1ccc(/C=C2\SC(=S)N(Cc3ccco3)C2=O)cc1
T/C [4]: 92 % of control
T/C [5]: 91 % of control
T/C [6]: 88 % of control

N=C(N)SCc1c2ccccc2cc2ccccc12
T/C [7]: 163 % of control
T/C (dose: 300.0 mg/kg/injection, schedule: Q04DX003 (ip), vehicle: saline with Tween-80): 90 % of control

CC1(C)CNC2OC1NCC2(C)C
T/C (dose: 100.0 mg/kg/injection, schedule: Q01DX001 (ip), vehicle: saline sonified): 100 % of control
T/C (dose: 200.0 mg/kg/injection, schedule: Q01DX001 (ip), vehicle: saline sonified): 100 % of control
T/C (dose: 400.0 mg/kg/injection, schedule: Q01DX001 (ip), vehicle: saline sonified): 104 % of control

CN=C(N)Nc1ccc(C(=O)Oc2ccc([N+](=O)[O-])cc2)cc1
T/C (dose: 12.5 mg/kg/injection, schedule: Q01DX009 (ip), vehicle: water): 89 % of control
T/C (dose: 25.0 mg/kg/injection, schedule: Q01DX009 (ip), vehicle: water): 95 % of control
T/C (dose: 50.0 mg/kg/injection, schedule: Q01DX009 (ip), vehicle: water): 87 % of control
T/C [1]: 122 % of control
T/C [2]: 110 % of control
T/C (dose: 200.0 mg/kg/injection, schedule: Q01DX009 (ip), vehicle: water): 105 % of control
T/C [3]: 113 % of control

Cc1cc(C)c(C(=O)C=O)c(C)c1
T/C (dose: 25.0 mg/kg/injection, schedule: Q01DX009 (ip), vehicle: Klucel (hydroxypropylcellulose) (HPC)): 99 % of control
T/C (dose: 50.0 mg/kg/injection, schedule: Q01DX009 (ip), vehicle: Klucel (hydroxypropylcellulose) (HPC)): 104 % of control
T/C [9]: 110 % of control

O=[N+]([O-])c1ccc(Sc2ccc(Cl)cc2)c2nonc12
T/C [4]: 92 % of control

CCCC(O)C(NC(=O)CCl)C(=O)O (configuration not stated)
T/C (dose: 125.0 mg/kg/injection, schedule: Q01DX005 (ip), vehicle: other): 104 % of control
T/C (dose: 250.0 mg/kg/injection, schedule: Q01DX005 (ip), vehicle: other): 104 % of control

C=C(Cl)CSCCS
T/C (dose: 25.0 mg/kg/injection, schedule: Q01DX009 (ip), vehicle: acetone): 104 % of control
T/C (dose: 50.0 mg/kg/injection, schedule: Q01DX009 (ip), vehicle: acetone): 104 % of control

CCCCCCCCCCCC[n+]1ccc2ccccc2c1
T/C (dose: 1.0 mg/kg/injection, schedule: Q01DX010 (ip), vehicle: saline): 115 % of control

CCCCCCCCCCCCNCCCCCCCCCCCC
T/C (dose: 1.0 mg/kg/injection, schedule: Q01DX010 (ip), vehicle: other): 100 % of control
T/C (dose: 2.0 mg/kg/injection, schedule: Q01DX010 (ip), vehicle: other): 100 % of control
T/C (dose: 3.0 mg/kg/injection, schedule: Q01DX010 (ip), vehicle: other): 90 % of control
T/C (dose: 3.12 mg/kg/injection, schedule: Q01DX009 (ip), vehicle: Klucel (hydroxypropylcellulose) (HPC)): 100 % of control
T/C (dose: 3.25 mg/kg/injection, schedule: Q01DX001 (ip), vehicle: Klucel (hydroxypropylcellulose) (HPC)): 100 % of control
T/C (dose: 4.0 mg/kg/injection, schedule: Q01DX010 (ip), vehicle: other): 100 % of control
T/C (dose: 6.25 mg/kg/injection, schedule: Q01DX009 (ip), vehicle: Klucel (hydroxypropylcellulose) (HPC)): 90 % of control
T/C (dose: 6.5 mg/kg/injection, schedule: Q01DX001 (ip), vehicle: Klucel (hydroxypropylcellulose) (HPC)): 100 % of control
T/C (dose: 8.0 mg/kg/injection, schedule: Q01DX010 (ip), vehicle: water): 100 % of control
T/C (dose: 12.5 mg/kg/injection, schedule: Q01DX009 (ip), vehicle: Klucel (hydroxypropylcellulose) (HPC)): 95 % of control
T/C (dose: 13.0 mg/kg/injection, schedule: Q01DX001 (ip), vehicle: Klucel (hydroxypropylcellulose) (HPC)): 100 % of control
T/C (dose: 18.0 mg/kg/injection, schedule: Q01DX009 (ip), vehicle: Klucel (hydroxypropylcellulose) (HPC)): 95 % of control
T/C (dose: 60.0 mg/kg/injection, schedule: Q01DX001 (ip), vehicle: Klucel (hydroxypropylcellulose) (HPC)): 100 % of control
T/C (dose: 90.0 mg/kg/injection, schedule: Q01DX001 (ip), vehicle: Klucel (hydroxypropylcellulose) (HPC)): 100 % of control
T/C (dose: 130.0 mg/kg/injection, schedule: Q01DX001 (ip), vehicle: Klucel (hydroxypropylcellulose) (HPC)): 105 % of control
T/C (dose: 135.0 mg/kg/injection, schedule: Q01DX001 (ip), vehicle: Klucel (hydroxypropylcellulose) (HPC)): 104 % of control
T/C (dose: 200.0 mg/kg/injection, schedule: Q01DX001 (ip), vehicle: Klucel (hydroxypropylcellulose) (HPC)): 115 % of control
T/C (dose: 300.0 mg/kg/injection, schedule: Q01DX001 (ip), vehicle: Klucel (hydroxypropylcellulose) (HPC)): 110 % of control
T/C (dose: 305.0 mg/kg/injection, schedule: Q01DX001 (ip), vehicle: Klucel (hydroxypropylcellulose) (HPC)): 109 % of control

C#CCOCCBr
T/C (dose: 22.0 mg/kg/injection, schedule: Q01DX009 (ip), vehicle: saline): 122 % of control

COc1cc2c(cc1OC)C(=O)C(C(=O)c1ccccc1)C2 (configuration not stated)
T/C [9]: 100 % of control
T/C (dose: 100.0 mg/kg/injection, schedule: Q04DX003 (ip), vehicle: Klucel (hydroxypropylcellulose) (HPC)): 100 % of control
T/C (dose: 200.0 mg/kg/injection, schedule: Q01DX009 (ip), vehicle: Klucel (hydroxypropylcellulose) (HPC)): 100 % of control
T/C (dose: 200.0 mg/kg/injection, schedule: Q04DX003 (ip), vehicle: Klucel (hydroxypropylcellulose) (HPC)): 100 % of control
T/C (dose: 400.0 mg/kg/injection, schedule: Q01DX009 (ip), vehicle: Klucel (hydroxypropylcellulose) (HPC)): 91 % of control
T/C (dose: 400.0 mg/kg/injection, schedule: Q04DX003 (ip), vehicle: Klucel (hydroxypropylcellulose) (HPC)): 112 % of control

CS(=O)(=O)OCCCCCCCCCOS(C)(=O)=O
T/C (dose: 33.0 mg/kg/injection, schedule: Q04DX003 (ip), vehicle: saline with Tween-80): 104 % of control
T/C (dose: 50.0 mg/kg/injection, schedule: Q04DX003 (ip), vehicle: saline with Tween-80): 113 % of control
